As a reminder, the IC50 is the concentration needed to halve the response being measured.

Data on 18 molecules can be found in US11802120B2, “Fused cyclic urea derivatives as CRHR2 antagonist” (RaQualia Pharma Inc., priority 2018, dated 2023).

One experiment concerns the target T1, human CRHR1-beta (Homo sapiens, UniProt P34998).
T1 sequence (P34998 24-444 isoform P34998-1 limits assumed): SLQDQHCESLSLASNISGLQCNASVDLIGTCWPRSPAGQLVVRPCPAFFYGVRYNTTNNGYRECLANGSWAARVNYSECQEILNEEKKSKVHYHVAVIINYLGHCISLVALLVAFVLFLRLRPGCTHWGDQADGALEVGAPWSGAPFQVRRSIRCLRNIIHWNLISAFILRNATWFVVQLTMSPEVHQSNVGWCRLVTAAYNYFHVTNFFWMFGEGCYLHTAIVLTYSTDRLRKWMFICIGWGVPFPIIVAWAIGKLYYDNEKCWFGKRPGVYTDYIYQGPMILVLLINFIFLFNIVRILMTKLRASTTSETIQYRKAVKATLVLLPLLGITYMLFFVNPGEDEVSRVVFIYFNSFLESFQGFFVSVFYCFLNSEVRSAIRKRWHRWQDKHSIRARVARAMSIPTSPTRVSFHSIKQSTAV
Put plainly: cAMP functional assay for human CRHR1 (LANCE Ultra cAMP, TR-FRET). The note with it: CHO-K1 cells expressing human CRHR1-beta, agonist CRF at EC80, cAMP; read-out: IC50 against CRHR1. Format: cell-based. As to the method:
cAMP functional assay for human CRHR1 and CRHR2
The ability of the compounds of this invention to inhibit either CRHR2 or CRHR1 is assessed by 3′,5′-cyclic adenosine monophosphate (cAMP) production in cells using the LANCE Ultra cAMP assay kit (ParkinElmer), which are designed based on the homogeneous time-resolved fluorescence resonance energy transfer (TR-FRET) immunoassay.
CHO-K1 (Chinese hamster ovary) cells stably expressing either human CRHR2-alpha (DiscoveRX, Cat. 95-0048C2) or human CRHR1-beta (DiscoveRX, Cat. 95-0047C2) are grown in HAM's F12 media supplemented with 10% fetal bovine serum (FBS), 100 units/mL penicillin, 100 microg/mL hygromycin and 0.5 microg/mL geneticin at 37° C. in 5% CO2 humidified incubator to 80% confluence. After 7 hours starvation treatment in culture media containing 0.1% FBS, the cells are washed with Hanks balanced salt solution (HBSS) and cryopreserved.
For cAMP assay, frozen cells are thawed and washed with HBSS, followed by resuspended in assay buffer (HBSS containing 0.1% bovine serum albumin, 0.5 mM isobutylmethylxanthine and 5 mM Hepes, pH 7.4) at the appropriate concentration for the assay. The cell suspensions are plated on 384-well microplates (Greiner Bio-One) at a density of 4,000 cells per well. After preincubating the cells with various concentrations of the compounds for 30 min at 25° C., an assay buffer containing EC80 concentration of each agonist is added and the cells are incubated for 30 min at 25° C. Human urocortin2 (Peptide Institute) and CRF (Peptide Institute) are used as agonists for CRHR2 and CRHR1, respectively. For the termination of assay, europium-labeled cAMP tracer and ULight (registered trademark) dye labeled cAMP antibodies, both prepared with Lance-Ultra cAMP detection reagent (Perkin Elmer) are added in the plate and incubate for 60 min at 25° C. After incubation, TR-FRET signal is detected by EnVision plate reader (PerkinElmer). The IC50 values for compounds are calculated from dose-response curves by fitting the percent inhibition using XLfit (ID Business Solutions).
In general terms: In TR-FRET formats the signal depends on donor and acceptor labels being close together.
In the case of `Cc1ccc(-n2c(=O)n(C[C@H]3CC[C@H](NC(=O)c4cc(Cl)cnc4C)CC3)c3ccccc32)cn1` [Example 31, 5-chloro-2-methyl-N-((1r,4r)-4-((3-(6-methylpyridin-3-yl)-2-oxo-2,3-dihydro-1H-benzo[d]imidazol-1-yl)methyl)cyclohexyl)nicotinamide], the IC50 is less than 1000 nM.

Turning to `Cc1ncc(Cl)cc1C(=O)N[C@H]1CC[C@H](Cn2c(=O)n(-c3ccc(N4CC[C@@H](O)C4)nc3)c3ccccc32)CC1` [Example 81, 5-chloro-N-((1R,4r)-4-((3-(6-((R)-3-hydroxypyrrolidin-1-yl)pyridin-3-yl)-2-oxo-2,3-dihydro-1H-benzo[d]imidazol-1-yl)methyl)cyclohexyl)-2-methylnicotinamide], the IC50 is less than 1000 nM.

Regarding `Cc1ncc(Cl)cc1C(=O)N[C@H]1CC[C@H](Cn2c(=O)n(-c3ccc(OCCO)nn3)c3ccccc32)CC1` [Example 69, 5-chloro-N-((1r,4r)-4-((3-(6-(2-hydroxyethoxy)pyridazin-3-yl)-2-oxo-2,3-dihydro-1H-benzo[d]imidazol-1-yl)methyl)cyclohexyl)-2-methylnicotinamide], the IC50 is less than 1000 nM.

Regarding `Cc1ncc(Cl)cc1C(=O)N[C@H]1CC[C@H](Cn2c(=O)n(-c3ccc(N4CC[C@H](N(C)C)C4)nc3)c3ccccc32)CC1` [Example 61, 5-chloro-N-((1S,4r)-4-((3-(6-((S)-3-(dimethylamino)pyrrolidin-1-yl)pyridin-3-yl)-2-oxo-2,3-dihydro-1H-benzo[d]imidazol-1-yl)methyl)cyclohexyl)-2-methylnicotinamide], the IC50 was less than 1000 nM.

On to `Cc1ncc(Cl)cc1C(=O)N[C@H]1CC[C@H](Cn2c(=O)n(-c3ccc(CO)cc3)c3ccccc32)CC1` [Example 21, 5-chloro-N-((1r,4r)-4-((3-(4-(hydroxymethyl)phenyl)-2-oxo-2,3-dihydro-1H-benzo[d]imidazol-1-yl)methyl)cyclohexyl)-2-methylnicotinamide], for which the IC50 is less than 1000 nM.

For the molecule `Cc1ncc(Cl)cc1C(=O)N[C@H]1CC[C@H](Cn2c(=O)n(-c3ccc(OC[C@H]4CNCCO4)nc3)c3ccccc32)CC1` [Example 74, 5-chloro-2-methyl-N-((1R,4r)-4-((3-(6-((R)-morpholin-2-ylmethoxy)pyridin-3-yl)-2-oxo-2,3-dihydro-1H-benzo[d]imidazol-1-yl)methyl)cyclohexyl)nicotinamide], the IC50 was less than 1000 nM.

As for `Cc1ncc(Cl)cc1C(=O)N[C@H]1CC[C@H](Cn2c(=O)n(-c3ccc(N4CCN(C)CC4)nn3)c3ccccc32)CC1` [Example 68, 5-chloro-2-methyl-N-((1r,4r)-4-((3-(6-(4-methylpiperazin-1-yl)pyridazin-3-yl)-2-oxo-2,3-dihydro-1H-benzo[d]imidazol-1-yl)methyl)cyclohexyl)nicotinamide], the IC50 is less than 1000 nM.

Take `Cc1ncc(Cl)cc1C(=O)N[C@H]1CC[C@H](CN2C(=O)N(c3ccccc3)Cc3ccccc32)CC1` [Example 136, 5-chloro-2-methyl-N-((1r,4r)-4-((2-oxo-3-phenyl-3,4-dihydro-quinazolin-1(2H)-yl)methyl)cyclohexyl)nicotinamide]: the IC50 was less than 1000 nM.

Consider `Cc1ncc(Cl)cc1C(=O)N[C@H]1CC[C@H](Cn2c(=O)n(-c3ccc(OCCN(C)C)cc3)c3ccccc32)CC1` [Example 73, 5-chloro-N-((1r,4r)-4-((3-(4-(2-(dimethylamino)ethoxy)phenyl)-2-oxo-2,3-dihydro-1H-benzo[d]imidazol-1-yl)methyl)cyclo-hexyl)-2-methylnicotinamide], for which the half-inhibitory concentration (IC50) was less than 1000 nM.

In the case of `Cc1ncc(Cl)cc1C(=O)N[C@H]1CC[C@H](Cn2c(=O)n(-c3ccc(N4CC[C@H](O)C4)nc3)c3ccccc32)CC1` [Example 80, 5-chloro-N-((1S,4r)-4-((3-(6-((S)-3-hydroxypyrrolidin-1-yl)pyridin-3-yl)-2-oxo-2,3-dihydro-1H-benzo[d]imidazol-1-yl)methyl)cyclohexyl)-2-methylnicotinamide], the IC50 was less than 1000 nM.

Take `Cc1ncc(Cl)cc1C(=O)N[C@H]1CC[C@H](Cn2c(=O)n(CC3CCOCC3)c3ccccc32)CC1` [Example 3, 5-chloro-2-methyl-N-((1r,4r)-4-((2-oxo-3-((tetrahydro-2H-pyran-4-yl)methyl)-2,3-dihydro-1H-benzo[d]imidazol-1-yl)methyl)cyclohexyl)nicotinamide]: the IC50 is less than 1000 nM.

For the molecule `COc1ncc(-n2c(=O)n(C[C@H]3CC[C@H](NC(=O)c4cc(Cl)cnc4C)CC3)c3ccccc32)cn1` [Example 43, 5-chloro-N-((1r,4r)-4-((3-(2-methoxypyrimidin-5-yl)-2-oxo-2,3-dihydro-1H-benzo[d]imidazol-1-yl)methyl)cyclohexyl)-2-methylnicotinamide], the IC50 was less than 1000 nM.

Take `Cc1ncc(Cl)cc1C(=O)N[C@H]1CC[C@H](Cn2c(=O)n(-c3ccc(N4CCN(CCO)CC4)nc3)c3ccccc32)CC1` [Example 65, 5-chloro-N-((1r,4r)-4-((3-(6-(4-(2-hydroxyethyl)piperazin-1-yl)pyridin-3-yl)-2-oxo-2,3-dihydro-1H-benzo[d]imidazol-1-yl)methyl)cyclohexyl)-2-methylnicotinamide]: the IC50 is less than 1000 nM.

As for `Cc1ncc(Cl)cc1C(=O)N[C@H]1CC[C@H](Cn2c(=O)n(-c3ccc(OCCN(C)C)nc3)c3c(C)cccc32)CC1` [Example 59, 5-chloro-N-((1r,4r)-4-((3-(6-(2-(dimethylamino)ethoxy)pyridin-3-yl)-4-methyl-2-oxo-2,3-dihydro-1H-benzo[d]imidazol-1-yl)methyl)cyclohexyl)-2-methylnicotinamide], the IC50 is less than 1000 nM.

The target in the next experiment is T2, human CRHR2-alpha (Homo sapiens, UniProt Q13324).
T2 sequence (Q13324 1-411): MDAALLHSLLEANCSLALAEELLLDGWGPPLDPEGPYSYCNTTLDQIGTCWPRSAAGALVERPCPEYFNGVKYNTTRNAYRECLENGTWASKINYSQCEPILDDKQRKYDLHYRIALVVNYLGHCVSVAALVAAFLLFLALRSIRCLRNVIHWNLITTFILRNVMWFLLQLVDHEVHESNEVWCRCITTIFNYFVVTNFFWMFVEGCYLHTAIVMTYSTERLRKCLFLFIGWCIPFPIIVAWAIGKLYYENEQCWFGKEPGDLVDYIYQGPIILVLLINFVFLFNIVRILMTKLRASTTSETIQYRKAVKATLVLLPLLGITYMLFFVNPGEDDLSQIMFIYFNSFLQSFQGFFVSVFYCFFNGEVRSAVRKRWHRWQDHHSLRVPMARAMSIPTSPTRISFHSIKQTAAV
Briefly: cAMP functional assay for human CRHR2 (LANCE Ultra cAMP, TR-FRET). In kind it is cell-based. As to conditions: CHO-K1 cells expressing human CRHR2-alpha, agonist human urocortin2 at EC80, cAMP; read-out: IC50 against CRHR2. The essentials: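 First, starved and frozen CHO-K1 cells expressing the receptor are thawed into IBMX-containing HBSS buffer (pH 7.4). Next, compounds are added for 30 min at 25° C. Then agonist at EC80 (urocortin2 or CRF, per receptor) is added for another 30 min, followed by cAMP detection reagents.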
Take `O=C(N[C@H]1CC[C@H](Cn2c(=O)n(-c3ccc4cnccc4c3)c3ccccc32)CC1)c1cc(Cl)cnc1C(F)F` [Example 397, 5-chloro-2-(difluoromethyl)-N-((1r,4r)-4-((3-(isoquinolin-6-yl)-2-oxo-2,3-dihydro-1H-benzo[d]imidazol-1-yl)methyl)cyclohexyl)nicotinamide]: the IC50 was less than 300 nM.

As for `CNc1cc(-n2c(=O)n(C[C@H]3CC[C@H](NC(=O)c4cc(Cl)cnc4C(F)(F)F)CC3)c3ccccc32)ccn1` [Example 665, 5-chloro-N-((1r,4r)-4-((3-(2-(methylamino)pyridin-4-yl)-2-oxo-2,3-dihydro-1H-benzo[d]imidazol-1-yl)methyl)cyclohexyl)-2-(trifluoromethyl)nicotinamide], the IC50 is less than 300 nM.

Turning to `COc1ccc(C#N)c(-n2c(=O)n(C[C@H]3CC[C@H](NC(=O)c4cc(Cl)cnc4C(F)F)CC3)c3cccnc32)c1` [Example 507, 5-chloro-N-((1r,4r)-4-((3-(2-cyano-5-methoxyphenyl)-2-oxo-2,3-dihydro-1H-imidazo [4,5-b]pyridin-1-yl)methyl)cyclohexyl)-2-(difluoromethyl) nicotinamide], the IC50 was less than 300 nM.

On to `Cc1ccc(-n2c(=O)n(C[C@H]3CC[C@H](NC(=O)c4cc(Cl)cnc4C)CC3)c3cccc(C)c32)cn1` [Example 57, 5-chloro-2-methyl-N-((1r,4r)-4-((4-rrethyl-3-(6-methylpyridin-3-yl)-2-oxo-2,3-dihydro-1H-benzo[d]imidazol-1-yl)methyl)cyclohexyl)nicotinamide], for which the IC50 was less than 300 nM.
